# Assay results from patent US6541463B1, “Inhibitors of type 5 and type 3 17β-hydroxysteroid dehydrogenase and methods for their use” (Endorecherche, Inc., priority 1998, dated 2003).
# Legend:
# [1] = biological target: T1, human type 2 17β-hydroxysteroid dehydrogenase (Homo sapiens, UniProt P37059); assay: Enzymatic assay for type 2 17β-HSD; format: biochemical; settings: for IC50 / inhibition / Inhibition Type 2 17β-HSD Activity [% Inh. at 3 · 10^−8M]: Table 4′; for IC50: read-out: Inhibition Type 2 17β-HSD Activity IC50; for inhibition / Inhibition Type 2 17β-HSD Activity [% Inh. at 3 · 10^−8M]: 3 · 10^−8M; for inhibition: read-out: Inhibition Type 2 17β-HSD Activity [% Inh. at 3 · 10^−8M]
# T1 construct: expressed in transfected cells; host or cells: 293 cells, transient transfection; microsomal fraction (100 000×g pellet)
# T1 sequence (P37059 1-387): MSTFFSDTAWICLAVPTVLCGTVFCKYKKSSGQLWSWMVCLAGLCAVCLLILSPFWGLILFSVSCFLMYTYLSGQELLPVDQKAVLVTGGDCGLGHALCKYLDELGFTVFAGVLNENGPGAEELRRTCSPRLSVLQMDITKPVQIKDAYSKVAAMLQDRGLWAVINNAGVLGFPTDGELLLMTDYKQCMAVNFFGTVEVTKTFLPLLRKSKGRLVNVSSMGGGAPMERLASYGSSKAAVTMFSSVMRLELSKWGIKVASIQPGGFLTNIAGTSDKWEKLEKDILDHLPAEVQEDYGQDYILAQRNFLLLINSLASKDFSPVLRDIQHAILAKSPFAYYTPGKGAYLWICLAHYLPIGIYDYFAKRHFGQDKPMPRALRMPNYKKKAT
# Experimental: The manner in which IC50 was determined is described in “Efficacy of Preferred Inhibitors: VI. Enzymatic assay for types 1, 2, and 3 17β-HSD and types 1 and 3 3α-HSD”. […] numbers of IC50 are desirable. Blank means that a determination was not done. […]
# Enzyme sources. 293 cells transiently transfected with expression vectors encoding types 1, 2 and 3 17β-HSD (Luu-The et al., J. Steroid Biochem. Molec. Biol., 55: 581-587, 1995), types 1 and 2 5α-reductase (Luu-The et al., J. Invest. Dermatol., 102: 221-226, 1994) and types 1 and 3 3α-HSD (Dufort et al. Biochem. Biophys. Res. Commun. 228: 474-479, 1996), using the calcium phosphate procedure (Kingston et al., In: Current Protocols in Molecular Biology. Edited by E. M. Ausbel, R. Brent, R. E. Kingston, D. D. Moore, J. G. Seidman, J. A. Smith, K. Struhl. John Wiley & Sons, New York, pp. 9.1.1-9.1.9, 1991; Luu-The et al., J. Invest. Dermatol., 102: 221-226, 1994). For assays using cell subfractions, cells were sonicated in 50 mM sodium phosphate buffer (pH 7.4), containing 20% glycerol and 1 mM EDTA and centrifuged at 10 000×g for 30 min before centrifugation for 100 000×g for 1 h to separate the mitochondrial and microsomal fractions, respectively. The cytosol fractions (100 000×g supernatant) was used to determine type 1 activity while the microsomal fraction (pellet at 100 000×g) was used for measurement of types 2 and 3 17β-HSD activities.
# Incubation. The enzymatic reaction was carried out at 37° C. in 1 ml of 50 mM sodium phosphate buffer, pH 7.4, containing 20% glycerol, 1 mM EDTA, and 2 mM cofactors (NADPH or AND^+) for 1 h in the presence of 0.1 μM ^14C-labeled substrate: estrone and 4-dione for types 1 and […] 17β-HSD, respectively, testosterone for type 2 17β-HSD as well as types 1 and 2 5α-reductases, DHT for types 1 and 3 3α-HSD activities, and the indicated concentration of inhibitor.
# Extraction of metabolites, migration on TLC and quantification were as described above for the assay of type 5 17β-HSD.
# ZR-75-1 cells [2] = assay: Estrogenic activity: stimulation of proliferation of ZR-75-1 cells; format: cell-based, human
# Experimental: […] The manner in which the stimulation is determined is described in “Other Tests; C-Estrogenic/Antiestrogenic activity” Lower numbers are desirable. ND means that a determination was not done.
# (§1) Estrogenic/antiestrogenic activity of some preferred compounds has been measured using the […] human breast cancer cell line as described in more detail below.
# (§2) All media and medium supplments were purchased from Sigma. Cells were subcultured weekly by treatment with a pancreatic solution containing EDTA (0.2 g/L). The cell cultures used for the experiments herein describied were between passages 89 and 94.
# (§3) Cells in their logarithmic growth phase were harvested, briefly centrifuged, and resuspended in RPMI 1640. Cells were then plated in triplicate in LIMBRO 24-well plastic culture plates (2 cm^2/well). Since plating density influences the effect of hormones on ZR-75-1 cell growth, cells were plated at a density of 1×10^4 cells/well. […] Control cultures received the ethanol vehicle only. Cells were then allowed to grow at 37° C. for 10 days with medium changes (of identical composition) every 2 days.
# (§4) After E2 and/or antiestrogen treatment, cells were harvested by addition of 0.5 ml of a pancreatin solution (Sigma) for 5-10 min at 37° C. before addition of 0.5 mnl of RPMI 1640 containing 5% dextran coated […] bovine serum in order to block enzymatic action. Cell number (0.10 ml aliquot) was determined by measurement of DNA content as previously described (Simard et al., Endocrinology 126: 3223-3231,1990).
# ZR-75-1 cells [3] = assay: Antiestrogenic activity: inhibition of E2-induced proliferation of ZR-75-1 cells; format: cell-based, human; design: ZR-75-1 Activity, E2 / ZR-75-1 Activity E2 E^−6: unit not given here; settings: for ZR-75-1 Activity E2 E^−6: with E2, E^−6
# Experimental: The manner in which the inhibition is determined is described in “Other Tests; C-Estrogenic/Antiestrogenic Activity”. Lower numbers are desirable. ND means that a determination was not done.
# as §1, §2, §3, §4
compound,measurement,setting,value
COc1cc2c(cc1C)C1CCC3(C)C(CCC34CCC(C)(C)C(=O)O4)C1CC2 (stereo not shown) [EM-1412-CS],IC50,[1],> 10 µM
CN1C(=O)C=C[C@]2(C)C3CC[C@@]4(C)C(CC[C@@]45CCCC(=O)O5)C3CCC12 (stereo partly shown) [EM-1122-CS],Inhibition Type 2 17β-HSD Activity [% Inh. at 3.10^−5 M],"[1]; Table 5 column 5, bracketed values, 3.10^−5 M",[90] %
CN(C)C(=O)c1cc2c(cc1O)CCC1C2CCC2(C)C1CCC21CCC(C)(C)C(=O)O1 (stereo not shown) [EM-01661-B],inhibition,[1]; bracketed values,55%
CC1(C)CC[C@@]2(CCC3C4CCc5cc(F)ccc5C4CC[C@@]32C)OC1=O (stereo partly shown) [EM-1157-CS],IC50,[1],> 10 µM
COC(=O)c1cc2c(cc1O)CCC1C2CCC2(C)C1CCC21CCC(C)(C)C(=O)O1 (stereo not shown) [EM-01662],inhibition,[1]; bracketed values,70%
CCC(=O)O[C@]1(C(C)=O)CCC2C3C=C(C)C4=CC(=O)C[C@H](C)[C@]4(C)C3CC[C@@]21C (stereo partly shown) [CS-243],"ZR-75-1 Activity, Basal","ZR-75-1 cells [2]; E^−6, in %",0
same,"ZR-75-1 Activity, Basal","ZR-75-1 cells [2]; E^−8, in %",0
same,"ZR-75-1 Activity, E2",ZR-75-1 cells [3]; E2,−57
same,"ZR-75-1 Activity, E2","ZR-75-1 cells [3]; E2, E^−8",−60
"C[C@]12CCC3c4cc([N+](=O)[O-])c(O)cc4CCC3C1CC[C@@]21CCCC(=O)O1 (stereo partly drawn) [EM-1124, 2-Nitro-1,3,5(10)-estraetriene-3-ol-17(R)-spiro-2′-(6′-oxo)tetrahydropyran]","ZR-75-1 Activity, Basal E^−6",ZR-75-1 cells [2]; Table 4′,12%
same,"ZR-75-1 Activity, Basal E^−8",ZR-75-1 cells [2]; Table 4′,0%
same,"ZR-75-1 Activity, E2 3E^−8","ZR-75-1 cells [3]; Table 4′, E2-induced proliferation, 3E^−8",0%
CC12C=CC(=O)C=C1C=CC1C2CCC2(C)C(=O)C3(CCCCC3)CC12 (stereo not shown) [CS-204],"ZR-75-1 Activity, Basal E^−6",ZR-75-1 cells [2],0
same,"ZR-75-1 Activity, Basal E^−8",ZR-75-1 cells [2],0
same,"ZR-75-1 Activity, E2 3E^−8","ZR-75-1 cells [3]; with E2, 3E^−8",0
same,ZR-75-1 Activity E2 E^−6,ZR-75-1 cells [3],−25
CC(C)C[C@@H]1CC2C3C=CC4=CC(=O)CC[C@]4(C)C3CC[C@]2(C)C1=O (stereo partly shown) [EM-1273-CS],"ZR-75-1 Activity, Basal E^−6",ZR-75-1 cells [2],0
same,"ZR-75-1 Activity, Basal E^−8",ZR-75-1 cells [2],0
same,"ZR-75-1 Activity, E2 3E^−8","ZR-75-1 cells [3]; with E2, 3E^−8",0
same,ZR-75-1 Activity E2 E^−6,ZR-75-1 cells [3],−30
COCCOc1cc2c(cc1F)C1CCC3(C)C(CCC34CCC(C)(C)C(=O)O4)C1CC2 (stereo not shown) [EM-1393-CS],IC50,[1],> 10 µM
"CC(=O)O[C@]1(C(C)=O)CCC2C3C=C(C)C4=CC(=O)CC[C@]4(C)C3CC[C@@]21C (stereo partly shown) [megestrol acetate, reference compound]","ZR-75-1 Activity, E2",ZR-75-1 cells [3]; E2,−81
same,"ZR-75-1 Activity, E2","ZR-75-1 cells [3]; E2, E^−8",−70
COCCOc1cc2c(cc1C(=O)N(C)C)C1CCC3(C)C(CCC34CCC(C)(C)C(=O)O4)C1CC2 (stereo not shown) [EM-1413-CS],inhibition,[1]; bracketed values,69%
same,IC50,[1],> 10 µM
CC1(C)CCC2(CCC3C4CCc5cc(O)c(C#N)cc5C4CCC32C)OC1=O (stereo not shown) [EM-01645],inhibition,[1]; bracketed values,38%
COc1ccc2c(c1)C(=O)CC1C2CC[C@@]2(C)C1CC[C@@]21CCC(C)(C)C(=O)O1 (stereo partly shown) [EM-1394],IC50,[1],> 10 µM
CC12CCC3c4ccc(F)cc4CCC3C1CCC21CCCC(=O)O1 (stereo not shown) [EM-1170-CS],inhibition,[1]; bracketed values,84%
CC1(C)CCC2(CCC3C4CCc5cc(C(=O)OCc6ccccc6)ccc5C4CCC32C)OC1=O (stereo not shown) [EM-1398],Inhibition Type 2 17β-HSD Activity [% Inh. at 3 · 10^−8M],[1]; bracketed values,[64] %
"CC1(C)CC[C@@]2(CCC3C4CCc5cc(C(=O)O)ccc5C4CC[C@@]32C)OC1=O (stereo partly drawn) [EM-1401, 3-Carboxy-1,3,5(10)-estratrien-17(R)-spiro-2′-(5′,5′-dimethyl-6′-oxo)tetrahydropyran]",inhibition,[1]; bracketed values,76%
CC1(C)CCC2(CCC3C4CCc5c(cc(Cl)c(OS(C)(=O)=O)c5Cl)C4CCC32C)OC1=O (stereo not shown) [EM-1392-CS],IC50,[1],> 10 µM
CC1(C)CC[C@@]2(CC[C@H]3[C@@H]4CCc5c(cc(Br)c(O)c5Br)[C@H]4CC[C@@]32C)OC1=O [EM-1382-CS],Inhibition Type 2 17β-HSD Activity [% Inh. at 3 · 10^−8M],[1]; bracketed values,[70] %
CN(C)CCOc1ccc2c(c1)CCC1C2CCC2(C)C1CCC21CCC(C)(C)C(=O)O1 (stereo not shown) [EM-1389-CS],IC50,[1],> 10 µM
"CC1(C)CC[C@@]2(CCC3C4CCc5cc6oncc6cc5C4CC[C@@]32C)OC1=O (stereo partly drawn) [EM-1407-CS, 1,3,5(10)-estratrien-(2,3-oximino)-17(R)-spiro-2′-(5′,5′-dimethyl-6′-oxo)tetrahydropyran]",inhibition,[1]; bracketed values,68%
"COc1cc2c(cc1C(F)(F)F)C1CCC3(C)C(CCC34CCC(C)(C)C(=O)O4)C1CC2 [EM-1409, 3-Methoxy-2-trifluoromethyl-1,3,5(10)-estratrien-17(R)-spiro-2′-(5′,5′-dimethyl-6′-oxo)tetrahydropyran]",inhibition,[1]; bracketed values,4%
"COCCOc1cc2c(cc1C(=O)O)C1CCC3(C)C(CCC34CCC(C)(C)C(=O)O4)C1CC2 [EM-1405, 2-Carboxy-3-(2″-methoxyethyloxy)-1,3,5(10)-estratrien-17(R)-spiro-2′-(5′,5′-dimethyl-6′-oxo)tetrahydropyran]",IC50,[1],> 10 µM
COc1c(Br)cc2c(c1Br)CCC1C2CCC2(C)C1CCC21CCC(C)(C)C(=O)O1 (stereo not shown) [EM-1385-CS],IC50,[1],> 10 µM
CC1(C)CCC2(CCC3C4CCc5cc(O)c(C(N)=O)cc5C4CCC32C)OC1=O (stereo not shown) [EM-01660],inhibition,[1]; bracketed values,59%
COc1ccc(CC(=O)O[C@]2(C(C)=O)CCC3C4C=C(C)C5=CC(=O)C=C[C@]5(C)C4CC[C@@]32C)cc1 (stereo partly shown) [EM-1291],Inhibition Type 2 17β-HSD Activity [% Inh.],[1]; at 3.10^-8M,[67] %
"CC1(C)CCC2(CCC3C4CCc5cc(OCCN6CCCCC6)ccc5C4CCC32C)OC1=O [EM-1390-CS, 3-(N-piperidyl-ethyl)-1,3,5(10)-estratrien-17(R)-spiro-2′-(5′,5′-dimethyl-6′-oxo)-tetrahydropyran]",IC50,[1],> 10 µM
"COCCOc1cc2c(cc1C(F)(F)F)[C@H]1CC[C@@]3(C)[C@@H](CC[C@@]34CCC(C)(C)C(=O)O4)[C@@H]1CC2 [EM-1438, 3-(2′-Methoxyethoxy)-2-trifluoromethyl-1,3,5(10)-estratrien-17(R)-spiro-2′-(5′,5′-dimethyl-6′-oxo)tetrahydropyran]",Inhibition Type 2 17β-HSD Activity [% Inh. at 3 · 10^−8M],[1]; bracketed values,[72] %
COCCOc1ccc2c(c1)C(=O)CC1C2CCC2(C)C1CCC21CCC(C)(C)C(=O)O1 (stereo not shown) [EM-1408-CS],inhibition,[1]; bracketed values,66%
CC1(C)CCC2(CCC3C4CCc5c(cc(Cl)c(O)c5Cl)C4CCC32C)OC1=O (stereo not shown) [EM-1391-CS],IC50,[1],> 10 µM
